SMILES strings stand for the structures.

As a reminder, the inhibition is the percentage by which the read-out fell short of the control. Higher therefore signals strong suppression.

The test system of the test is human hepatoma Huh-7 cell line harboring a HCV replicon. The test can be described thus: HCV replicon assay (inhibition of viral replication, luciferase readout). The format is cell-based. As to conditions: Hepatitis C virus, 72 h, Huh-7 HCV replicon cells, 3 days incubation. A digest of the protocol:
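Read-outs: luciferase luminescence for replication inhibition, corrected by ITMN-191 (100% inhibition) wells, and calcein AM fluorescence for cytotoxicity. Cells were treated for 3 days at 37 °C with ten 3-fold compound dilutions in 0.44% final DMSO. Percent inhibition relative to DMSO was fitted with a Hill equation to give EC50 and CC50.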
Background: A replicon is a self-replicating genome or part of one, used to study replication in cells.
The compound `CC(C)(C)C#Cc1cc(N(C(=O)[C@H]2CC[C@H](C)CC2)[C@H]2CC[C@H](Oc3cccnc3N3CCCC3)CC2)c(C(=O)O)s1` [Compound 149, 5-(3,3-Dimethylbut-1-ynyl)-3-(4-methyl-N-(4-(2-(pyrrolidin-1-yl)pyridin-3-yloxy)cyclohexyl)cyclohexanecarboxamido)thiophene-2-carboxylic acid] showed an inhibition at 2 µM of 99%. For the compound `CC(C)(C)C#Cc1cc(N(C(=O)[C@H]2CC[C@H](C)CC2)[C@H]2CC[C@H](Oc3cc(N4CCCC4)ncn3)CC2)c(C(=O)O)s1` [Compound 150, 5-(3,3-Dimethylbut-1-ynyl)-3-(4-methyl-N-(4-(6-(pyrrolidin-1-yl)pyrimidin-4-yloxy)cyclohexyl)cyclohexanecarboxamido)thiophene-2-carboxylic acid], testing at 2 µM gave an inhibition of 99.6%.

The compound `CN(C)c1nc(O[C@H]2CC[C@H](N(c3cc(C#CC(C)(C)C)sc3C(=O)O)C(=O)[C@H]3CC[C@H](C)CC3)CC2)ncc1F` [Compound 151, 3-(N-(4-(4-(Dimethylamino)-5-fluoropyrimidin-2-yloxy)cyclohexyl)-4-methylcyclohexanecarboxamido)-5-(3,3-dimethylbut-1-ynyl)thiophene-2-carboxylic acid] showed an inhibition at 2 µM of 99.4%. Then `CC(C)(C)C#Cc1cc(N(C(=O)[C@H]2CC[C@H](C)CC2)[C@H]2CC[C@H](Oc3cccc(N4CCCC4)n3)CC2)c(C(=O)O)s1` [Compound 152, 5-(3,3-Dimethylbut-1-ynyl)-3-(4-methyl-N-(4-(6-(pyrrolidin-1-yl)pyridin-2-yloxy)cyclohexyl)cyclohexanecarboxamido)thiophene-2-carboxylic acid], with 73.7%; and `CC(C)(C)C#Cc1cc(N(C(=O)[C@H]2CC[C@H](C)CC2)[C@H]2CC[C@H](Oc3cncc(N4CCCC4)n3)CC2)c(C(=O)O)s1` [Compound 153, 5-(3,3-Dimethylbut-1-ynyl)-3-(4-methyl-N-(4-(6-(pyrrolidin-1-yl)pyrazin-2-yloxy)cyclohexyl)cyclohexanecarboxamido)thiophene-2-carboxylic acid], with 100%; and `Cc1nsc(OC2CCC(N(c3cc(C#CC(C)(C)C)sc3C(=O)O)C(=O)[C@H]3CC[C@H](C)CC3)CC2)n1` (some centres unmarked) [Compound 154, 5-(3,3-Dimethylbut-1-ynyl)-3-(4-methyl-N-(4-(3-methyl-1,2,4-thiadiazol-5-yloxy)cyclohexyl)cyclohexanecarboxamido)thiophene-2-carboxylic acid], with 99.7%. The figure for `CC(C)(C)C#Cc1cc(N(C(=O)[C@H]2CC[C@H](C)CC2)C2CCC(Oc3nc(CN4CCCC4)cs3)CC2)c(C(=O)O)s1` (some centres unmarked) [Compound 155, 5-(3,3-Dimethylbut-1-ynyl)-3-(4-methyl-N-(4-(4-(pyrrolidin-1-ylmethyl)thiazol-2-yloxy)cyclohexyl)cyclohexanecarboxamido)thiophene-2-carboxylic acid] is 100%. Then `CN(C)Cc1csc(OC2CCC(N(c3cc(C#CC(C)(C)C)sc3C(=O)O)C(=O)[C@H]3CC[C@H](C)CC3)CC2)n1` (some centres unmarked) [Compound 156, 3-(N-(4-(4-((Dimethylamino)methyl)thiazol-2-yloxy)cyclohexyl)-4-methylcyclohexanecarboxamido)-5-(3,3-dimethylbut-1-ynyl)thiophene-2-carboxylic acid], with 100%; and `CC(C)(C)C#Cc1cc(N(C(=O)[C@H]2CC[C@H](C)CC2)C2CCC(Oc3cc[n+]([O-])cc3)CC2)c(C(=O)O)s1` (some centres unmarked) [Compound 157, 5-(3,3-Dimethylbut-1-ynyl)-3-(4-methyl-N-(4-(pyridin-4-yloxy-N-oxide)cyclohexyl)cyclohexanecarboxamido)thiophene-2-carboxylic acid], with 99.9%.

For `CN(C)c1cc(O[C@H]2CC[C@H](N(c3cc(C#CC(C)(C)C)sc3C(=O)O)C(=O)[C@H]3CC[C@H](C)CC3)CC2)ncn1` [Compound 158, 3-(N-(4-(6-(Dimethylamino)pyrimidin-4-yloxy)cyclohexyl)-4-methylcyclohexanecarboxamido)-5-(3,3-dimethylbut-1-ynyl)thiophene-2-carboxylic acid], the inhibition at 2 µM was 99.9%.

As to `CC(C)(C)C#Cc1cc(N(C(=O)[C@H]2CC[C@H](C)CC2)[C@H]2CC[C@H](Oc3ccc(N4CCCC4)nn3)CC2)c(C(=O)O)s1` [Compound 159, 5-(3,3-Dimethylbut-1-ynyl)-3-(4-methyl-N-(4-(6-(pyrrolidin-1-yl)pyridazin-3-yloxy)cyclohexyl)cyclohexanecarboxamido)thiophene-2-carboxylic acid], the inhibition at 2 µM was 99.8%. Then `CN(C)c1ccc(O[C@H]2CC[C@H](N(c3cc(C#CC(C)(C)C)sc3C(=O)O)C(=O)[C@H]3CC[C@H](C)CC3)CC2)nn1` [Compound 160, 3-(N-(4-(6-(Dimethylamino)pyridazin-3-yloxy)cyclohexyl)-4-methylcyclohexanecarboxamido)-5-(3,3-dimethylbut-1-ynyl)thiophene-2-carboxylic acid], with 99.9%. The compound `CC(C)(C)C#Cc1cc(N(C(=O)[C@H]2CC[C@H](C)CC2)[C@H]2CC[C@H](Oc3nc(CN4CCCC4)ns3)CC2)c(C(=O)O)s1` [Compound 161, 5-(3,3-Dimethylbut-1-ynyl)-3-(4-methyl-N-(4-(3-(pyrrolidin-1-ylmethyl)-1,2,4-thiadiazol-5-yloxy)cyclohexyl)cyclohexanecarboxamido)thiophene-2-carboxylic acid] showed an inhibition at 2 µM of 99.9%. Then `CC(C)(C)C#Cc1cc(N(C(=O)[C@H]2CC[C@H](C)CC2)[C@H]2CC[C@H](Oc3cncnc3)CC2)c(C(=O)O)s1` [Compound 162, 5-(3,3-Dimethylbut-1-ynyl)-3-(4-methyl-N-(4-(pyrimidin-5-yloxy)cyclohexyl)cyclohexanecarboxamido)thiophene-2-carboxylic acid], with 99.9%; and `CC(C)(C)C#Cc1cc(N(C(=O)[C@H]2CC[C@H](C)CC2)[C@H]2CC[C@H](Oc3ccncn3)CC2)c(C(=O)O)s1` [Compound 163, 5-(3,3-Dimethylbut-1-ynyl)-3-(4-methyl-N-(4-(pyrimidin-4-yloxy)cyclohexyl)cyclohexanecarboxamido)thiophene-2-carboxylic acid], with 100%; and `CC(C)(C)C#Cc1cc(N(C(=O)[C@H]2CC[C@H](C)CC2)[C@H]2CC[C@H](Oc3cc(C(=O)N4CCCC4)ccn3)CC2)c(C(=O)O)s1` [Compound 166, Sodium 5-(3,3-dimethylbut-1-ynyl)-3-(4-methyl-N-(4-(4-(pyrrolidine-1-carbonyl)pyridin-2-yloxy)cyclohexyl)cyclohexanecarboxamido)thiophene-2-carboxylate], with 99.9%.

`CN1CCC(NC(=O)c2ccnc(O[C@H]3CC[C@H](N(c4cc(C#CC(C)(C)C)sc4C(=O)O)C(=O)[C@H]4CC[C@H](C)CC4)CC3)c2)CC1` [Compound 167, Sodium 3-(N-(4-(4-((1-methylpiperidin-4-yl)carbamoyl)pyridin-2-yloxy)cyclohexyl)-4-methylcyclohexanecarboxamido)-5-(3,3-dimethylbut-1-ynyl)thiophene-2-carboxylate] displayed an inhibition at 2 µM of 99.9%. The figure for `CC(C)(C)C#Cc1cc(N(C(=O)[C@H]2CC[C@H](C)CC2)[C@H]2CC[C@H](Oc3cc(C(=O)N4CCC4)ccn3)CC2)c(C(=O)O)s1` [Compound 168, Sodium 3-(N-(4-(4-(azetidine-1-carbonyl)pyridin-2-yloxy)cyclohexyl)-4-methylcyclohexanecarboxamido)-5-(3,3-dimethylbut-1-ynyl)thiophene-2-carboxylate] is 99.9%.

`CN(C)C1CCN(C(=O)c2ccnc(O[C@H]3CC[C@H](N(c4cc(C#CC(C)(C)C)sc4C(=O)O)C(=O)[C@H]4CC[C@H](C)CC4)CC3)c2)C1` (some centres unmarked) [Compound 169, Sodium 3-(N-(4-(4-(3-(dimethylamino)pyrrolidine-1-carbonyl)pyridin-2-yloxy)cyclohexyl)-4-methylcyclohexanecarboxamido)-5-(3,3-dimethylbut-1-ynyl)thiophene-2-carboxylate] came in with an inhibition at 2 µM of 100%. The figure for `CC(C)(C)C#Cc1cc(N(C(=O)[C@H]2CC[C@H](C)CC2)[C@H]2CC[C@H](Oc3ccc(CN4CCCC4=O)cn3)CC2)c(C(=O)O)s1` [Compound 170, Sodium 5-(3,3-dimethylbut-1-ynyl)-3-(4-methyl-N-(4-(5-((2-oxopyrrolidin-1-yl)methyl)pyridin-2-yloxy)cyclohexyl)cyclohexanecarboxamido)thiophene-2-carboxylate] is 99.9%; for `CC(C)(C)C#Cc1cc(N(C(=O)[C@H]2CC[C@H](C)CC2)[C@@H]2CCC(Oc3ccccn3)C(CN3CCCC3)C2)c(C(=O)O)s1` (stereo partly drawn) [Compound 171, Sodium 5-(3,3-dimethylbut-1-ynyl)-3-(4-methyl-N-((1R)-4-(pyridin-2-yloxy)-3-(pyrrolidin-1-ylmethyl)cyclohexyl)cyclohexanecarboxamido)thiophene-2-carboxylate] it is 99.7%. The figure for `Cn1nc(O[C@H]2CC[C@@H](N(c3cc(C#CC(C)(C)C)sc3C(=O)O)C(=O)[C@H]3CC[C@H](C)CC3)CC2)ccc1=O` [Compound 173, Sodium 5-(3,3-dimethylbut-1-ynyl)-3-(4-methyl-N-(4-(1-methyl-6-oxo-1,6-dihydropyridazin-3-yloxy)cyclohexyl)cyclohexanecarboxamido)thiophene-2-carboxylate] is 100%; for `Cn1nc(O[C@H]2CC[C@H](N(c3cc(C#CC(C)(C)C)sc3C(=O)O)C(=O)[C@H]3CC[C@H](C)CC3)CC2)ccc1=O` [Compound 174, 5-(3,3-Dimethylbut-1-ynyl)-3-(4-methyl-N-(4-(1-methyl-6-oxo-1,6-dihydropyridazin-3-yloxy)cyclohexyl)cyclohexanecarboxamido)thiophene-2-carboxylic acid] it is 100%.

For the origin of these results see patent US8569302B2, “Inhibitors of flaviviridae viruses” (Gilead Sciences, Inc., priority 2009, dated 2013).
